Entries after “also recorded” stand apart in the source; their conditions may differ.

The subject of assay [1] is VEGF-A promoter (VEGF-A-GQ) in MCF-7 cells. In words: Dual-luciferase assay, VEGF-A promoter with VEGF-A-GQ. It is filed as cell-based, human. The note with it: MCF-7, 24 h, peptide 0–60 μM. The protocol:
(§1) MCF-7 cells are sub-cultured into 24-well microtiter plates at a cell density of 1 × 10^5 cells/well. Reporter constructs (c-MYC, BCL-2, KRAS and VEGF-A) (500 ng) with and/or without the G-quadruplex scaffolds triggering the expression of Renilla luciferase are co-transfected with 50 ng of pGL3-control vectors (Promega) (used as internal control), encoding firefly luciferase into MCF-7 cells using Lipofectamine® 3000 transfection reagent (Thermo-Fisher Scientific) following manufacturer's recommendations (Supplementary information Section 1). Twenty four hours post-transfection, cells are treated with peptides (FK13, KR12A, KR12B, KR12C, KR12D and KR12E) at an increasing concentration gradient.
(§2) Dual-luciferase assays are performed to examine the intracellular selectivity of peptides for c-MYC quadruplex isomers (Pu27, Myc22 and Pu19) over other oncogenic quadruplexes (BCL-2, VEGF-A and KRAS) of different topologies. The role of peptide-quadruplex complex in oncogene promoter activation is investigated in contrast to the GQ-null promoter constructs into MCF-7 cells ([67]). After 24 h of peptide treatment, cells are washed and lysed into 100 μl 1× Passive lysis buffer (PLB) for 15 min at room temperature. Renilla and firefly Luciferase activities in 25 μl lysate are quantified by Dual-Luciferase® reporter assay system (Promega) as per manufacturer's recommendations. Renilla luciferase enzyme activity is normalized to that of the firefly luciferase activity and luminescence of the peptide-treated samples are normalized to the untreated ones, which yield the fold induction values for Renilla activities by different quadruplex structures in presence and absence of synthetic peptides. Luminescence of each sample is detected in GloMax® 20/20 Single-Tube Luminometer (Promega) in triplicates and averaged from three independent experiments.

Assay [2] relates to Nucleolin at c-MYC-NHE III1 in MCF-7 cells. The assay can be described thus: ChIP, Nucleolin occupancy at c-MYC-NHE III1. The note with it: MCF-7, 24 h, ChIP-qPCR versus IgG control. It counts as cell-based, human. The protocol: (§3) Chromatin immunoprecipitation studies are conducted to monitor the promoter occupancies of different transcription factors (Sp1, NM23-H2 and Nucleolin) and RNA polymerase II (RNAPII) on the region encompassing c-MYC-NHE III1 ([69]). We have grown MCF-7 cells in 10-cm^2 culture flask at a density of 1 × 10^6 cells per well and treated with the synthetic peptides (FK13, KR12A, KR12B, and KR12C) for 24 hours. Cells are cross-linked with 1% formaldehyde at room temperature for 10 min and the reaction is stopped by 0.125 M glycine at room temperature for 10 min. Fixed cells are lysed and sonicated to yield DNA fragments of 200–500 bp. ChIP-grade antibodies (NM23-H2 (L-15) Antibody (sc-14790, Santa Cruz), and Anti-Nucleolin antibody [4E2]-ChIP Grade (Abcam)), Anti Sp1 antibody (Sigma), and Rpb1 (RNAPII subunit b1) CTD (C-terminal domain) 4H8 antibody are added to the sonicated chromatin and incubated overnight at 4°C. Then, 10 μl protein A magnetic beads (Dynal, Invitrogen), previously washed in RIPA buffer are added to the samples and bead–protein complexes are washed thrice with RIPA buffer and twice with TE buffer. The genomic DNA is eluted for 2 h at 68°C in complete elution Buffer (20 mM Tris, pH 7.5, 5 mM EDTA, 50 mM NaCl, 1% SDS and 50 μg/ml proteinase K) and further combined with the DNA eluted from second elution for 10 min at 68°C in 100 μl of elution buffer (20 mM Tris, pH 7.5, 5 mM EDTA and 50 mM NaCl). ChIP-isolated DNA is purified using MinElute Purification kit (Qiagen) and is amplified by PCR (Polymerase Chain Reaction) reactions using forward and reverse primers ([70]) (Supplementary Table S4) specific to the quadruplex-enriched regions at c-MYC promoter and Phusion® High-Fidelity PCR Kit (NEB). Anti-rabbit IgG is employed for mock immunoprecipitation (Negative control).

The subject of assay [3] is c-MYC promoter with Pu19 isomer in MCF-7 cells. The assay can be described thus: Dual-luciferase assay, c-MYC promoter under control of Pu19. It is filed as cell-based, human. The note with it: MCF-7, 24 h peptide treatment. The protocol:
as §1, §2

The subject of assay [4] is native c-MYC quadruplex (Pu27). In words: ITC of peptides with native c-MYC quadruplex Pu27 in potassium phosphate buffer. The note with it: for K A / Kd / ΔG (binding energy) / ΔH (binding enthalpy) / ΔS (entropy): 25°C, 20 μM peptide in cell, 500 μM Pu27 in syringe, 10 mM potassium phosphate, 0.1 M KCl, pH 7.0, one-site model. It counts as binding, human. The protocol: The putative wild-type and truncated G-quadruplex forming sequences (Table 2 and Supplementary Table S1), located at the upstream of c-MYC promoter are reconstituted in 10 mM Potassium Phosphate buffer (pH 7.0) having 100 mM potassium chloride (KCl). The sequences are allowed to evolve G-quadruplex structure in solution by annealing at 95°C followed by gradual cooling. (Supplementary information Section 1).
Thermodynamic attributes of the interaction profiles between peptides and putative quadruplex sequences are analysed by ITC using iTC200 Microcalorimeter at 25°C. Synthetic peptides (FK13, KR12A, KR12B, KR12C, KR12D and KR12E) are diluted to 20 μM in 10 mM Potassium phosphate buffer (10 mM K2HPO4 + 10 mM KH2PO4) containing 0.1 M KCl (pH 7.0). Syringe is filled with 500 μM quadruplex sequences present in the upstream promoter regions of c-MYC (Pu27, Pu19, and Myc22), BCL-2 (Pu30), VEGF-A (Pu22), KRAS (Pu32) oncogenes, and telomere (Tel26) dissolved into the same buffer. We also carried out the experiment for KR12C and Pu27 using MCF-7 nuclear extract as the solvent to mimic the cellular microenvironment and impart macromolecular crowding during binding events. Same concentration of oligonucleotides is injected into the identical buffer or in nuclear extract without peptides to normalize the heat of dilution of peptide-quadruplex association to that of the control before curve-fitting. Oligonucleotides are injected 20 times at an interval of 150 s into the calorimeter cell having the peptides to achieve binding saturation. The heat of reaction per injection (μcal/s) is determined by integration of the peak areas using in-built Origin 7.0 software that provides the best-fit values of enthalpy (ΔH) and entropy (ΔS) of binding, the binding stoichiometry (n), and dissociation constant (Kd) (Supplementary Tables S5(a), S5(b) and S5(c)). Data points are further simulated with ‘one-site’ binding modes (Supplementary information Section 1).

Assay [5] has as its system BCL-2 promoter (BCL-2-GQ) in MCF-7 cells. In words: Dual-luciferase assay, BCL-2 promoter with BCL-2-GQ. It counts as cell-based, human. The note with it: MCF-7, 24 h, peptide 0–60 μM. The protocol: as §1, §2
Assay [6] deals with NM23-H2 at c-MYC-NHE III1 in MCF-7 cells. In words: ChIP, NM23-H2 occupancy at c-MYC-NHE III1. The note with it: MCF-7, 24 h, ChIP-qPCR versus IgG control. It counts as cell-based, human. The protocol:
as §3
Background: In qPCR the cycle at which signal appears reflects the starting amount.

The subject of assay [7] is RNAPII at c-MYC promoter in MCF-7 cells. The assay can be described thus: ChIP, RNA polymerase II occupancy at c-MYC promoter. It counts as cell-based, human. The note with it: MCF-7, 24 h, ChIP-qPCR versus IgG control. The protocol:
as §3

[8] abbreviates: potassium phosphate buffer pH 7.0.

As a reminder, the Kd is the constant that tells how readily two partners part at equilibrium. A lower Kd goes with a tighter complex. N – FKRIVQRIKDFLR – C [FK13]: in assay [1], the “VEGF-A promoter activity” value is reported as “significantly downregulate; also recorded: strongly inhibited”. Also, the “Nucleolin occupancy at c-MYC-NHE III1” value in assay [2] is reported as “no role”. Also, in assay [3], the “c-MYC promoter activation under control of Pu19” value (from here on “c-MYC promoter activation”) is listed as “attenuated”. In addition, in assay [4], the “K A” value is 28900 M⁻¹, binding was characterised by a dissociation constant (Kd) of 34.6 µM, the “ΔG (binding energy)” value is -5.982 kcal/mol and the “ΔH (binding enthalpy)” value was -77.8 kcal/mol. Moreover, in assay [4], the “ΔS (entropy)” value is −241 cal/mol/deg. The “BCL-2 promoter activity” value in assay [5] is listed as “significantly downregulate”. Also, the “NM23-H2 occupancy at c-MYC-NHE III1” value in assay [6] is “no role”. For the same substance, the “RNAPII occupancy at c-MYC promoter” value in assay [7] was “did not significantly altered”.

N – KRIVKLIKKWLR – C [KR12C]: the “VEGF-A promoter activity” value in assay [1] was “no significant impact”. The “Nucleolin occupancy at c-MYC-NHE III1” value in assay [2] is “depleted”. Moreover, in assay [3], the “c-MYC promoter attrition in presence of Pu19, fold” value is reported as around 5 fold. Also, in assay [4], the “K A” value worked out at 124000 M⁻¹, the Kd worked out at 8.06 µM, the “ΔG (binding energy)” value was -6.974 kcal/mol and the “ΔH (binding enthalpy)” value is -47.8 kcal/mol. Moreover, the “ΔS (entropy)” value in assay [4] is on record as −137 cal/mol/deg. In assay [4] (setting [8]), the “fold higher binding ΔH for Pu27 association compared to KR12B and KR12D” value was around 2 fold; the “times higher affinity for Pu27 compared to KR12B and KR12D” value is listed as around 5 times. The “BCL-2 promoter activity” value in assay [5] was “no significant impact”. For the same substance, the “NM23-H2 occupancy at c-MYC-NHE III1” value in assay [6] is “depleted”. Moreover, the “RNAPII occupancy at c-MYC promoter” value in assay [7] is reported as “significantly depleted”.

For “N – KRIVKRIKKWLR – C [KR12B, dodecameric mutant peptide derived from FK13 / LL37]”, in assay [1], the “VEGF-A promoter activity” value is reported as “strongly inhibited”. Moreover, the “Nucleolin occupancy at c-MYC-NHE III1” value in assay [2] was “depleted the abundance”. The “c-MYC promoter activation” value in assay [3] is reported as “weaker”. For the same substance, in assay [4], the “K A” value turned out to be 26800 M⁻¹, the Kd was 37.3 µM, the “ΔG (binding energy)” value is -6.18 kcal/mol and the “ΔH (binding enthalpy)” value is -137.3 kcal/mol. Moreover, the “ΔS (entropy)” value in assay [4] is −440 cal/mol/deg. Moreover, the “BCL-2 promoter activity” value in assay [5] is “inverse regulation”. Further, in assay [6], the “NM23-H2 occupancy at c-MYC-NHE III1” value is “depleted the abundance”. Further, in assay [7], the “RNAPII occupancy at c-MYC promoter” value is recorded as “significantly depleted”.

Take “N – KRIVQRIKKWLR – C [KR12A, dodecameric mutant peptide derived from FK13 / LL37]”: the “VEGF-A promoter activity” value in assay [1] is recorded as “significantly downregulate”. Moreover, the “Nucleolin occupancy at c-MYC-NHE III1” value in assay [2] is recorded as “did not significantly affect”. For the same substance, in assay [3], the “c-MYC promoter activation” value is “attenuated”. For the same substance, in assay [4], the “K A” value worked out at 16200 M⁻¹, the Kd amounted to 61.7 µM, the “ΔG (binding energy)” value was -6.44 kcal/mol and the “ΔH (binding enthalpy)” value was -72 kcal/mol. Also, in assay [4], the “ΔS (entropy)” value is −220 cal/mol/deg. In addition, in assay [5], the “BCL-2 promoter activity” value is “significantly downregulate”. Further, the “NM23-H2 occupancy at c-MYC-NHE III1” value in assay [6] is reported as “slightly enriched”. Further, the “RNAPII occupancy at c-MYC promoter” value in assay [7] is reported as “depleted RNAPII occupancy”.

The values above are taken from article PMC6212778, “Site-specific amino acid substitution in dodecameric peptides determines the stability and unfolding of c-MYC quadruplex promoting apoptosis in cancer cells” (Nucleic Acids Research, 2018).
